By IC50 is commonly meant the concentration that inhibits the measured activity by half. Usually inhibition stands for how much of the control response was suppressed. Low readings indicate little suppression, high ones strong suppression.

Among the data in ChEMBL document CHEMBL1782041, “Novel non-peptide beta-secretase inhibitors derived from structure-based virtual screening and bioassay” (Bioorg Med Chem Lett, 2009) are IC50 and inhibition values, retold here.

The target in test [1] is T1, Beta-secretase 1 (Homo sapiens, UniProt P56817). Nature of the test: Inhibition of BACE1 using peptide substrate Rh-EVNLDAEFKQuencher by fluorescence resonance energy transfer (FRET) assay.
T1 sequence (P56817 whole entry): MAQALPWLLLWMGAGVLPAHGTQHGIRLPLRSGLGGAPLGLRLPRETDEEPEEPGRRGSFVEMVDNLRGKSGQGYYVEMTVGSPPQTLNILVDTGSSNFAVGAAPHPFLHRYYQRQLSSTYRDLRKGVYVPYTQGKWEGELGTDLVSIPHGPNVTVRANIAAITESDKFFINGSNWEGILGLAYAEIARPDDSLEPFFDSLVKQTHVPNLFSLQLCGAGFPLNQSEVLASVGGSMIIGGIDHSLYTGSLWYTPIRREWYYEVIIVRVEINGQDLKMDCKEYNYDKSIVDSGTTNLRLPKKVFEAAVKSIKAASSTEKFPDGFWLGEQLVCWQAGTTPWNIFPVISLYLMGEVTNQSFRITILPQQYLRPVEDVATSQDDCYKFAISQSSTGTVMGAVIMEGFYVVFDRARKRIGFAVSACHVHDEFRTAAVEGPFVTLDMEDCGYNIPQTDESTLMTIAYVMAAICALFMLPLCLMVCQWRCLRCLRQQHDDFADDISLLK
Test [2] has as its target T1, Beta-secretase 1. The experiment in a line: Inhibition of BACE1 using peptide substrate Rh-EVNLDAEFKQuencher at 100 uM by fluorescence resonance energy transfer (FRET) assay.

Peptide text beside a SMILES is read from it.

The compound `Cc1cc(C)nc(N/C(=N\C(=O)N2c3ccccc3Sc3ccccc32)Nc2cccc([N+](=O)[O-])c2)n1` returned an IC50 against Beta-secretase 1 [1] of 28.6 µM. Further, at Beta-secretase 1 [2], the inhibition was found to be 80%.
`Cc1nc(N/C(=N\C(=O)Nc2ccccc2)NC(=O)Nc2ccccc2)nc2ccccc12` came in with an inhibition at Beta-secretase 1 [2] of 100%.
The compound `N#Cc1c(-c2ccccc2)cc(-c2ccccc2)nc1SCC(=O)Nc1cccc([N+](=O)[O-])c1` gave an IC50 on Beta-secretase 1 [1] of 20 µM. On Beta-secretase 1 [2], this compound returned an inhibition of 100%.
Taken in the same sequence, the figures for `CC[C@H](C)[C@H](NC(=O)[C@H](CCC(=O)O)NC(=O)[C@H](CCC(=O)O)NC(=O)[C@@H](NC(=O)[C@@H](N)CCCCN)[C@@H](C)O)C(=O)N[C@@H](CO)C(=O)N[C@@H](CCC(=O)O)C(=O)N[C@H](C(=O)N[C@@H](CC(N)=O)C(=O)N[C@@H](CC(C)C)[C@@H](O)CC(=O)N[C@H](C(=O)N[C@@H](C)C(=O)N[C@@H](CCC(=O)O)C(=O)N[C@@H](Cc1ccccc1)C(=O)O)C(C)C)C(C)C` (HELM PEPTIDE1{K.T.E.E.I.S.E.V.N.[CC(C)C[C@H](N[*:1])[C@@H](O)CC(=O)[*:2]].V.A.E.F}$$$$V2.0) were 0.12 µM and 100%.
At Beta-secretase 1 [1], `CCc1nnc(NC(=O)CSc2nc(-c3ccc(F)cc3)cc(-c3ccccc3)c2C#N)s1` registered an IC50 of 50 µM. Further, the inhibition on Beta-secretase 1 [2] amounted to 80%.
In the case of `COc1ccc(CCNC(=O)CSc2nc3ccc(Nc4nc(N5CCCCC5)nc(N5CCCCC5)n4)cc3s2)cc1OC`, at Beta-secretase 1 [1], inhibition was half-maximal at 2.8 µM (IC50). For the same compound, the inhibition against Beta-secretase 1 [2] is 80%.
Taken in the same sequence, the figures for `Cc1nn(-c2ccccc2)c(Cl)c1C1Nc2ccccc2-c2nnc(SCc3ccccc3)nc2O1` (configuration not stated) were 100 µM and 48%.
In the case of `O=S(=O)(c1ccc(Br)cc1)N(c1cnn(Cc2ccc(Cl)c(Cl)c2)c1)S(=O)(=O)c1ccc(Br)cc1`, at Beta-secretase 1 [1], the IC50 is 90 µM. On Beta-secretase 1 [2], the inhibition came to 50%.
`Cc1ccc(NC(=O)Cc2nnc(SCC(=O)Nc3nc(-c4ccccc4)cs3)n2C)cc1`: the IC50 against Beta-secretase 1 [1] was 21 µM. The inhibition at Beta-secretase 1 [2] was found to be 83%.
On Beta-secretase 1 [1], `O=C(CSc1nnc(Cc2c[nH]c3ccccc23)n1Cc1ccccc1)c1c[nH]c2ccccc12` gave an IC50 of 100 µM. Also, the inhibition on Beta-secretase 1 [2] amounted to 75%.
Taken in the same sequence, the figures for `N#Cc1c(-c2ccc(F)cc2)cc(-c2ccccc2)nc1SCC(=O)NC12CC3CC(CC(C3)C1)C2` were 118 µM and 45%.
`Cc1nc(NC(=NC(=O)Nc2ccccc2)NC(=O)Nc2ccccc2)nc2ccccc12` came in with a half-maximal inhibitory concentration (IC50) on Beta-secretase 1 [1] of 3 µM.
Consider `N#Cc1c(NC(=O)C(F)(F)C(F)(F)C(F)(F)C(F)(F)C(=O)Nc2sc3c(c2C#N)CCCCCC3)sc2c1CCCCCC2`, for which inhibition against Beta-secretase 1 [1] was half-maximal at 12.2 µM (IC50). In addition, the inhibition on Beta-secretase 1 [2] amounted to 87%.
Taken in the same sequence, the figures for `O=C(Nc1ncc(Cc2cccc(Cl)c2Cl)s1)c1ccc(CSc2nnc(-c3ccncc3)n2-c2ccccc2)cc1` were more than 100 µM and 78%.
Compound `O=C(CSc1nc2ccc(Nc3nc(N4CCCCC4)nc(N4CCCCC4)n3)cc2s1)Nc1ccccc1F` gave an IC50 against Beta-secretase 1 [1] of 10.2 µM. This compound also had an inhibition on Beta-secretase 1 [2] of 90%.
Regarding `N#Cc1c(NC(=O)COC(=O)CSc2nc(-c3ccccc3)cc(-c3ccccc3)n2)sc2c1CCCC2`, the IC50 against Beta-secretase 1 [1] came out at 34.5 µM. This compound came in with an inhibition at Beta-secretase 1 [2] of 75%.
As to `COc1ccc(-c2cc(-c3ccc(Cl)cc3)c(C#N)c(SCC(=O)N(c3ccccc3)c3ccc4ccccc4c3)n2)cc1`, the IC50 on Beta-secretase 1 [1] came to 50 µM. For the same compound, the inhibition on Beta-secretase 1 [2] stood at 68%.
